Test [1] has as its system PqsR-dependent pqsA::lux promoter fusion. Description: pqsA::lux promoter fusion expression in P. aeruginosa PAO1-L (AQ-dependent QS biosensor). The format is cell-based. The settings on record: for IC50: Pseudomonas aeruginosa, PAO1, read-out: IC50, pqsA::lux expression; for extent of inhibition of light output / pqsA expression at high concentrations: PAO1 pqsA::lux; for inhibition of pqsA::lux expression in first screening (FIG. 1-3): lactam 100 μM, control LB medium+1% methanol. Here is the method:
The expression of rhl and las AHL- and the pqsA AQ-synthase genes was evaluated using lux-based lasI (FIG. 1), rhlI (FIG. 2) and pqsA (FIG. 3) chromosomally integrated promoter fusions. Luminescence was quantified as a function of bacterial growth. The applicant further determined that none of the lactams is growth inhibitory at 100 μM using a large number of strains (figure not shown).
To determine the relative inhibitory activities (IC50s) of 4-(4-chlorophenyl)-5-methylene-pyrrol-2-one (Ref. 488) and 5-methylene-4-(p-tolyl)pyrrol-2-one (Ref. 491), dose response curves were constructed using the same biosensor strain (P. aeruginosa PAO1 pqsA::lux; Fletcher et al, 2007; Ilangovan et al 2013). This strain produces light in response to the endogenous production of AQs such as PQS and HHQ.

Test [2] has as its system PqsR-independent pathway of pqsA expression. Description: PqsR-independent expression of pqsA'::lux in PAO1-N ΔpqsAHR. The format is cell-based, P. aeruginosa PAO1-N ΔpqsAHR. The settings on record: presence or absence of 40 μM PQS. An excerpt:
PQS is capable of weakly activating pqsA in the absence of PqsR via a mechanism that is not fully understood but appears to depend on the iron chelating properties of PQS. The aim of this experiment was to clarify whether lactam 4-(4-chlorophenyl)-5-methylene-pyrrol-2-one (Ref. 488) is also inhibitory for pqsA expression via the PqsR independent pathway. As previously described, the pqsA′::lux biosensor based on the triple mutant PAO1-N ΔpqsAHR cannot produce AQs and lacks pqsR but still responds to exogenous PQS. This response is however much weaker that the PqsR-dependent response.

In test [3] the test system is pyocyanin production by PAO1-L. Description: Pyocyanin production by PAO1-L, visual assessment. The format is cell-based, P. aeruginosa PAO1-L. The following applies: 488 at 100 μM (vial 2), 8 h at 37° C., PAO1-L culture supernatant. An excerpt:
Pyocyanin is a blue redox-active secondary metabolite and a putative signalling molecule in P. aeruginosa (Jayaseelan et al, 2014). The pyocyanin biosynthetic (phz) genes are regulated by QS and in part via the transcriptional regulator PqsR acting through PqsE (Rampioni et al 2011).
Although qualitative, this observation offers further confirmation of the inhibitory effects of lactam 4-(4-chlorophenyl)-5-methylene-pyrrol-2-one (Ref. 488) on AQ-dependent QS.

The target in test [4] is T1, PqsR (Pseudomonas aeruginosa, UniProt Q9I4X0).
T1 construct: endogenous in cells; host or cells: P. aeruginosa PAO1-L ΔpqsA pqsA::lux (chromosomal reporter fusion)
Description: PQS-dependent pqsA::lux expression in AQ-non-producing PAO1-L ΔpqsA (PqsR antagonism). It counts as cell-based, P. aeruginosa PAO1-L ΔpqsA. Here is the method:
By using the AQ-non producing P. aeruginosa strain PAO1-L ΔpqsA, pqsA::lux, the EC50 value for the native PqsR agonist, PQS was calculated as ˜2 μM (Ilangovan et al. 2013). […]
A partial agonist is a molecule that can bind to and activate a receptor resulting in a non-complete response compared with a full agonist. […] This contrasts with its activity as an antagonist in the presence of 10 or 40 μM PQS.

Test [5] relates to enzymes (PqsABCD) involved in AQ biosynthesis. Description: HHQ/AQ biosynthesis in PAO1-N ΔpqsAHR pBBR-pqsABCD, TLC with biosensor overlay. The format is cell-based, P. aeruginosa PAO1-N ΔpqsAHR. The following applies: 488 200 μM, overnight in LB. The text has this:
To determine whether 4-(4-chlorophenyl)-5-methylene-pyrrol-2-one (Ref. 488) is capable of inhibiting the enzymes (PqsABCD) involved in AQ biosynthesis, the P. aeruginosa PAO1-N ΔpqsAHR was exploited. This mutant cannot produce AQs because the genes coding for the key biosynthetic enzymes (PqsA and PqsH) and regulation (PqsR) have been deleted. To restore AQ production in a PqsR-independent manner in PAO1-N ΔpqsA, the pqsABCD genes were introduced on a plasmid (pBBR pqsABCD; Niewerth et al. 2011). P. aeruginosa PAO1-N ΔpqsAHR and P. aeruginosa PAO1-N ΔpqsAHR pBBR pqsABCD were both incubated overnight in LB with and without 4-(4-chlorophenyl)-5-methylene-pyrrol-2-one (Ref. 488) (200 μM), resuspended to an OD600 1.0. The cultures were extracted with acidified ethyl acetate, the organic phase removed, dried and resuspended in methanol subjected to thin layer chromatography (TLC).
After chromatography using a dichloromethane-methanol mobile phase, the TLC plates were overlaid with a thin agar layer containing the AQ biosensor strain PAO1-L ΔpqsA CTX::pqsA′-luxCDABE (Fletcher et al. 2007) incubated and examined for reporter output (FIG. 13). […] The biosensor strain produces light (FIG. 13 panel C) and pyocyanin (FIG. 13 panel B) in response to AQs that bind to PqsR and activate the pqsA promoter.

This is an account of results in patent US11083706B2, “Lactams for use in the treatment of skin lesions” (priority 2016, dated 2021).

Entries after “also recorded” stand apart in the source; their conditions may differ.

T1 sequence (Q9I4X0 whole entry, the tested form may be a part): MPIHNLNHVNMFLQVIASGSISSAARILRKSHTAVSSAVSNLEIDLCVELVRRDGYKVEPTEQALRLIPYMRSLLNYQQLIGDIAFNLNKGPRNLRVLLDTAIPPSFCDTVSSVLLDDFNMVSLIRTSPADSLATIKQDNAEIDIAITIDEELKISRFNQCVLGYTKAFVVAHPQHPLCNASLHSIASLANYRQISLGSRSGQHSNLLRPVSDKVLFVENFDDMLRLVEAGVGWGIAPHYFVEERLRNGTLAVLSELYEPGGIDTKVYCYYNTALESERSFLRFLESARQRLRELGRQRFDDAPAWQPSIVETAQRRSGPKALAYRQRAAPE

Regarding `C=C1NC(=O)C=C1c1ccc(C)cc1` [Lactam 491, 5-methylene-4-(p-tolyl)pyrrol-2-one], in test [1], the 50% inhibitory concentration (IC50) (as a rule, the point on the concentration scale where inhibition reaches its midpoint) came to 44 µM; the “extent of inhibition of light output / pqsA expression at high concentrations” value is “did not inhibit pqsA expression as strongly; also recorded: did not give complete knock out”; the “inhibition of pqsA::lux expression in first screening (FIG. 1-3)” value is recorded as “inhibition of the pqs-system is the main effect”.

`C=C1NC(=O)C=C1c1ccc(Cl)cc1` [Lactam 488, 4-(4-chlorophenyl)-5-methylene-pyrrol-2-one]: in test [2], the “effect on PqsR-independent expression of pqsA” value is listed as “small inhibitory effect”. In addition, the “pyocyanin production (qualitative)” value in test [3] is “inhibition of pyocyanin production”. Also, the “mode of antagonism of PQS-dependent pqsA::lux expression” value in test [4] (488 at 0, 50, 100, 200 μM with range of PQS concentrations) is “competitive antagonist”. Moreover, the “restoration of light output by PQS in the presence of 488” value in test [4] (488 at 50, 100, 200 μM) is given as “fully restoring light output in the presence of 50 μM but not 100 μM or 200 μM”. Further, the “partial agonist activity (activation of pqsA expression)” value in test [4] (488 up to 800 μM, PQS 0 μM, PAO1-L ΔpqsA pqsA'::lux) is reported as “no partial agonist activity”. For the same molecule, in test [4] (fixed concentration of 488 (215 μM)), the “fold increase of PQS EC50 in the presence of 488” value is ~15 fold. For the same molecule, the “inhibition of HHQ biosynthesis” value in test [5] is on record as “did not inhibit HHQ biosynthesis”. In test [1], the IC50 is 22 µM, the “extent of inhibition of light output / pqsA expression at high concentrations” value is listed as “completely inhibited light output; also recorded: fully knock out the PQS” and the “inhibition of pqsA::lux expression in first screening (FIG. 1-3)” value is on record as “most potent inhibitor; also recorded: inhibition of the pqs-system is the main effect”.
